# Experimental data published in publication PMC12514841 (Protein Science : A Publication of the Protein Society, 2025).
# “And” between values parts separate entries of the source, which are not always exact repeats. Equal entries are not always repeated.
# What was measured:
# Assay type in all cases: biochemical
# BlaC I105G = BlaC I105G (Mycobacterium tuberculosis, UniProt P9WKD3, I117G); conditions: pH 6.4
# BlaC G132N = BlaC G132N (Mycobacterium tuberculosis, UniProt P9WKD3, G132N/G144N)
# BlaC I105Y-S130G [1] = target: T1, BlaC I105Y-S130G (Mycobacterium tuberculosis, UniProt P9WKD3, I117Y/S142G); conditions: pH 6.4
# BlaC I105G-G132N [2] = target: T2, BlaC I105G-G132N (Mycobacterium tuberculosis, UniProt P9WKD3, G144N/I117G)
# BlaC I105Y = BlaC I105Y (Mycobacterium tuberculosis, UniProt P9WKD3, I117Y); conditions: pH 6.4
# BlaC S130G = BlaC S130G (Mycobacterium tuberculosis, UniProt P9WKD3, S142G)
# BlaC I105Y-S130G [3] = target: T1, BlaC I105Y-S130G
# BlaC I105G-G132N [4] = target: T2, BlaC I105G-G132N; remark: listed apart in the source
compound,measurement,setting,value
"O=C(Cc1cccs1)N[C@@H]1C(=O)N2C(C(=O)O)=C(/C=C/c3ccc([N+](=O)[O-])cc3[N+](=O)[O-])CS[C@H]12 [Nitrocefin, nitrocefin]",K M ^app,BlaC I105G,240 ± 40 µM
same,k cat,BlaC I105G,79 ± 5 s⁻¹
same,k cat /K M ^app relative to the wild-type,BlaC I105G,0.68 ± 0.04
same,k cat/K M ^app,BlaC I105G,0.34 ± 0.02 µM⁻¹ s⁻¹
same,K M ^app,BlaC G132N; pH 6.4,210 ± 30 µM
same,k cat,BlaC G132N; pH 6.4,18 ± 2 s⁻¹
same,k cat /K M ^app relative to the wild-type,BlaC G132N; pH 6.4,0.16 ± 0.04
same,k cat/K M ^app,BlaC G132N; pH 6.4,0.08 ± 0.02 µM⁻¹ s⁻¹
same,k cat,BlaC I105Y-S130G [1],21 ± 7 and 21 ± 7 s^−1
same,k cat /K M ^app relative to the wild-type,BlaC I105Y-S130G [1],0.08 ± 0.04
same,kcat,BlaC I105Y-S130G [1],13 ± 4 s⁻¹ and 13 ± 1 s⁻¹
same,K M ^app,BlaC I105G-G132N [2]; pH 6.4,115 ± 1 µM
same,k cat,BlaC I105G-G132N [2]; pH 6.4,41 ± 1 s⁻¹
same,k cat /K M ^app relative to the wild-type,BlaC I105G-G132N [2]; pH 6.4,0.71 ± 0.01
same,k cat/K M ^app,BlaC I105G-G132N [2]; pH 6.4,0.357 ± 0.005 µM⁻¹ s⁻¹
same,K M ^app,BlaC I105Y,18 ± 1 µM
same,k cat,BlaC I105Y,39 ± 10 s⁻¹
same,k cat /K M ^app relative to the wild-type,BlaC I105Y,4.2 ± 0.2
same,k cat/K M ^app,BlaC I105Y,2.1 ± 0.1 µM⁻¹ s⁻¹
same,fold decrease in k cat/K M ^app compared to the wild-type,BlaC S130G,approximately 30 fold
same,K M ^app,BlaC S130G; pH 6.4,358 ± 4 µM
same,k cat,BlaC S130G; pH 6.4,5 ± 1 s⁻¹
same,k cat /K M ^app relative to the wild-type,BlaC S130G; pH 6.4,0.03 ± 0.01
same,k cat/K M ^app,BlaC S130G; pH 6.4,0.014 ± 0.003 µM⁻¹ s⁻¹
"O=C(O)[C@H]1/C(=C/CO)O[C@@H]2CC(=O)N21 [Clavulanic acid, clavulanic acid]",incubation time after which the enzyme is fully inhibited,BlaC I105Y-S130G [3],2 h
same,state of the enzyme after 24 h of incubation,BlaC I105Y-S130G [3],stays fully inhibited
same,activity,"BlaC I105Y-S130G [3]; read-out: recovery of activity, of the control activity",63%
same,course of residual activity during incubation,BlaC I105G-G132N [4],"initially a slight drop in activity, followed by a swift recovery"
"CC1(C)S[C@@H]2[C@H](NC(=O)C(C(=O)O)c3ccccc3)C(=O)N2[C@H]1C(=O)O (stereo partly shown) [Carbenicillin, carbenicillin]",K M ^app,BlaC I105G,1.5 ± 0.4 µM
same,k cat,BlaC I105G,0.12 ± 0.01 s⁻¹
same,k cat /K M ^app relative to the wild-type,BlaC I105G,0.90 ± 0.04
same,k cat/K M ^app,BlaC I105G,0.081 ± 0.004 µM⁻¹ s⁻¹
same,times decrease in catalytic efficiency (k cat/K M ^app) versus the wild-type,BlaC G132N,13 times
same,K M ^app,BlaC G132N; pH 6.4,224 ± 11 µM
same,k cat,BlaC G132N; pH 6.4,1.62 ± 0.02 s⁻¹
same,k cat /K M ^app relative to the wild-type,BlaC G132N; pH 6.4,0.080 ± 0.004
same,k cat/K M ^app,BlaC G132N; pH 6.4,0.0072 ± 0.0004 µM⁻¹ s⁻¹
same,K M ^app,BlaC I105Y-S130G [1],21 ± 3 µM
same,k cat,BlaC I105Y-S130G [1],2.7 ± 0.2 s⁻¹
same,k cat /K M ^app relative to the wild-type,BlaC I105Y-S130G [1],1.4 ± 0.2
same,k cat/K M ^app,BlaC I105Y-S130G [1],0.13 ± 0.02 µM⁻¹ s⁻¹
same,K M ^app,BlaC I105G-G132N [2]; pH 6.4,7.0 ± 0.9 µM
same,k cat,BlaC I105G-G132N [2]; pH 6.4,0.96 ± 0.07 s⁻¹
same,k cat /K M ^app relative to the wild-type,BlaC I105G-G132N [2]; pH 6.4,1.6 ± 0.2
same,k cat/K M ^app,BlaC I105G-G132N [2]; pH 6.4,0.14 ± 0.02 µM⁻¹ s⁻¹
same,K M ^app,BlaC I105Y,1.5 ± 1 µM
same,k cat,BlaC I105Y,2.0 ± 0.1 s⁻¹
same,k cat /K M ^app relative to the wild-type,BlaC I105Y,14.9 ± 0.8
same,k cat/K M ^app,BlaC I105Y,1.34 ± 0.07 µM⁻¹ s⁻¹
same,K M ^app,BlaC S130G; pH 6.4,72 ± 5 µM
same,k cat,BlaC S130G; pH 6.4,1.2 ± 0.1 s⁻¹
same,k cat /K M ^app relative to the wild-type,BlaC S130G; pH 6.4,0.22 ± 0.01
same,k cat/K M ^app,BlaC S130G; pH 6.4,0.020 ± 0.001 µM⁻¹ s⁻¹
"CC1(C)S[C@@H]2[C@H](NC(=O)[C@H](N)c3ccccc3)C(=O)N2[C@H]1C(=O)O [Ampicillin, ampicillin]",KMapp,BlaC I105G,31 ± 6 µM
same,k cat,BlaC I105G,3.95 ± 0.04 and 3.95 ± 0.04 s^−1
same,k cat /K M ^app relative to the wild-type,BlaC I105G,1.00 ± 0.05
same,k cat/K M ^app,BlaC I105G,0.21 ± 0.01 and 0.21 ± 0.01 μM^−1 s^−1
same,kcat,BlaC I105G,6.0 ± 0.4 s⁻¹
same,kcat/KMapp,BlaC I105G,210000 ± 40000 M⁻¹ s⁻¹
same,kcat/KMapp relative to the wild-type,BlaC I105G,1.00 ± 0.19
same,KMapp,BlaC G132N; pH 6.4,282 ± 9 µM
same,k cat,BlaC G132N; pH 6.4,33 ± 12 and 33 ± 12 s^−1
same,k cat /K M ^app relative to the wild-type,BlaC G132N; pH 6.4,0.10 ± 0.05
same,k cat/K M ^app,BlaC G132N; pH 6.4,0.02 ± 0.01 and 0.02 ± 0.01 μM^−1 s^−1
same,kcat,BlaC G132N; pH 6.4,61 ± 1 s⁻¹
same,kcat/KMapp,BlaC G132N; pH 6.4,220000 ± 10000 M⁻¹ s⁻¹
same,kcat/KMapp relative to the wild-type,BlaC G132N; pH 6.4,1.04 ± 0.05
same,KMapp,BlaC I105Y-S130G [1],813 ± 132 µM
same,k cat,BlaC I105Y-S130G [1],17 ± 1 and 17 ± 1 s^−1
same,k cat /K M ^app relative to the wild-type,BlaC I105Y-S130G [1],0.270 ± 0.005
same,k cat/K M ^app,BlaC I105Y-S130G [1],0.057 ± 0.001 and 0.057 ± 0.001 μM^−1 s^−1
same,kcat,BlaC I105Y-S130G [1],23 ± 3 s⁻¹
same,kcat/KMapp,BlaC I105Y-S130G [1],29000 ± 6000 M⁻¹ s⁻¹
same,kcat/KMapp relative to the wild-type,BlaC I105Y-S130G [1],0.14 ± 0.03
same,factor by which the magnitude of positive epistasis diminished in MES buffer,BlaC I105G-G132N [2],7.4
same,KMapp,BlaC I105G-G132N [2]; pH 6.4,183 ± 21 µM
same,k cat,BlaC I105G-G132N [2]; pH 6.4,18 ± 1 and 18 ± 1 s^−1
same,k cat /K M ^app relative to the wild-type,BlaC I105G-G132N [2]; pH 6.4,0.95 ± 0.05
same,k cat/K M ^app,BlaC I105G-G132N [2]; pH 6.4,0.20 ± 0.01 and 0.20 ± 0.01 μM^−1 s^−1
same,kcat,BlaC I105G-G132N [2]; pH 6.4,54 ± 2 s⁻¹
same,kcat/KMapp,BlaC I105G-G132N [2]; pH 6.4,300000 ± 40000 M⁻¹ s⁻¹
same,kcat/KMapp relative to the wild-type,BlaC I105G-G132N [2]; pH 6.4,1.42 ± 0.05
same,KMapp,BlaC I105Y,89 ± 7 µM
same,k cat,BlaC I105Y,48 ± 1 and 48 ± 1 s^−1
same,k cat /K M ^app relative to the wild-type,BlaC I105Y,4.43 ± 0.1
same,k cat/K M ^app,BlaC I105Y,0.98 ± 0.02 and 0.98 ± 0.02 μM^−1 s^−1
same,kcat,BlaC I105Y,28 ± 1 s⁻¹
same,kcat/KMapp,BlaC I105Y,320000 ± 30000 M⁻¹ s⁻¹
same,kcat/KMapp relative to the wild-type,BlaC I105Y,1.52 ± 0.14
same,fold decrease in k cat/K M ^app compared to the wild-type,BlaC S130G,approximately 30 fold
same,fold higher activity in MES than in phosphate buffer,BlaC S130G,roughly 5 fold
same,k cat fold lower than for wild-type BlaC,BlaC S130G,8 fold
same,k cat times higher than for wild-type BlaC,BlaC S130G,2.5 times
same,KMapp,BlaC S130G; pH 6.4,588 µM
same,k cat,BlaC S130G; pH 6.4,1.7 ± 1 and 1.7 ± 1 s^−1
same,k cat /K M ^app relative to the wild-type,BlaC S130G; pH 6.4,0.03 ± 0.01
same,k cat/K M ^app,BlaC S130G; pH 6.4,0.007 ± 0.001 and 0.007 ± 0.001 μM^−1 s^−1
same,kcat,BlaC S130G; pH 6.4,21 ± 1 s⁻¹
same,kcat/KMapp,BlaC S130G; pH 6.4,35000 ± 1000 M⁻¹ s⁻¹
same,kcat/KMapp relative to the wild-type,BlaC S130G; pH 6.4,0.165 ± 0.005
